1 compound from paper PMC8880313, “Discovery of Novel Andrographolide Derivatives as Antiviral Inhibitors against Human Enterovirus A71” (Pharmaceuticals, 2022) can be followed below.

The structures appear in SMILES notation.

The subject of assay [1] is EV-A71. Briefly: Post-treatment assay with viral plaque assay. The class given is cell-based, human enterovirus A71 (EV-A71) strain 41. The settings on record: for reduction in viral titre: post-treatment, 12 hpi. Here is the method: Firstly, we performed cell viability assay to evaluate the cytotoxicity profile of the 19 hits. Cells seeded overnight were treated with the hit compounds at 10 µM. […] Anti-EV-A71 activity of AGP-253 had been illustrated and discussed previously. We were particularly interested in ZAF-46 and ZAF-47 as they belonged to the same series bearing novel 14-quinolinoxy and 17-hydro-8,9-olefin modifications (Figure 2b) that could potentially open up new targets for EV-A71 therapeutics. Additional cell viability assays were performed for ZAF-46 and ZAF-47 at different concentrations to identify the low cytotoxic concentrations for downstream post-treatment assays. For post-treatment assays, cells seeded overnight were infected with EV-A71 and subsequently treated with ZAF-46 and ZAF-47 at different concentrations. […] Treatment with ZAF-46 led to 1.4 log reduction at 10 µM and 2.4 log reduction at 20 µM (Figure 2c) while treatment with ZAF-47 led to 0.8 log reduction at 5 µM, 1.1 log reduction at 10 µM and 2.1 log reduction at 20 µM (Figure 2d). CC50 and IC50 for both compounds were determined and used to derive their SI (Table 2). ZAF-47 was selected for further downstream analysis due to its higher SI value which indicate higher pharmacological value for clinical use.
(§1) To determine the inhibitory profiles of the hits, post treatment assay was performed. Seeded 24-well plates, with 1.5 × 10^5 RD cells per well, were incubated overnight at 37 °C with 5% CO2. The seeded cells were infected with EV-A71 (100 µL per well, MOI = 1) for 1 h at 37 °C with 5% CO2 and then rinsed with 1 mL of PBS twice. Different concentrations of the hits were used to treat the infected cells for 12 h at 37 °C with 5% CO2. At 12 hpi, the plates were frozen and thawed for 2 cycles (−80°C; 37 °C) before collection of supernatants to measure the viral titres via viral plaque assay.
Measurement of the viral titres from collected supernatants was derived from viral plaque assays. To do this, 24-well plates, seeded with 2.4 × 10^5 RD cells per well, were used in plaque assays for EV-A71, EV-D68, Echo7, CV-A6, CV-A16 and CV-A24 while 24-well plates, seeded with 1.2 × 10^5 Vero cells per well, were used in plaque assays for CV-B5. Seeded cells were incubated overnight at 37 °C with 5% CO2. Viral supernatants were diluted from 10^−1 to 10^−7 in reduced serum DMEM before infecting the cells with a volume of 100 µL for 1 h at 37 °C with 5% CO2 (33 °C instead for EV-D68). Cells were rinsed twice with PBS before overlaying with 1 mL of reduced serum DMEM containing 0.5% agarose (Vivantis, Shah Alam, Malaysia). Cells infected with Echo7 supernatants were incubated for 2 days, cells infected with CV-A24 and CV-B5 supernatants were incubated for 3 days and cells infected with EV-A71, CV-A6, CV-A16 and EV-D68 supernatants were incubated for 4 days for the formation of plaques. Subsequently, the cells were fixed and stained overnight with 4% paraformaldehyde and 1% crystal violet (Sigma-Aldrich). Subsequent formation of viral plaques was counted manually to quantify the viral titre in PFU/mL

The test system of assay [2] is EV-D68. Briefly: Post-treatment assay, antiviral spectrum. The class given is cell-based, Enterovirus D68. Here is the method:
(§2) We were also interested in the antiviral potential of ZAF-47 against other Enteroviruses. As such, we performed post-treatment assay on RD cells infected with other Enteroviruses such as CV-A16, CV-A6, Echo7, CV-B5, CV-A24 and EV-D68.
as §1
(§3) Measurement of the viral titres from collected supernatants was derived from viral plaque assays. To do this, 24-well plates, seeded with 2.4 × 10^5 RD cells per well, were used in plaque assays for EV-A71, EV-D68, Echo7, CV-A6, CV-A16 and CV-A24 while 24-well plates, seeded with 1.2 × 10^5 Vero cells per well, were used in plaque assays for CV-B5. Seeded cells were incubated overnight at 37 °C with 5% CO2. […] Subsequent formation of viral plaques was counted manually to quantify the viral titre in PFU/mL […]

Assay [3] relates to CV-A6. Briefly: Post-treatment assay, antiviral spectrum. The class given is cell-based, Coxsackievirus A6. On the procedure:
as §2, §1, §3

In general, IC50 refers to the concentration that gives 50% inhibition. Low values mean inhibition by little substance, high ones a need for much substance. As to `CC(=O)OC[C@]1(C)C(=O)CC[C@@]2(C)C(C/C=C3/C(=O)OC[C@@H]3Oc3cccc4cccnc34)=C(C)CC[C@@H]21` [ZAF-47, (14β)-(8′-Quinolinoxy)-3-ketone-9-dehydro-17-hydro-19-acetoxy–andrographolide], the results for the “reduction in viral titre” value in assay [1] (5 µM), in assay [1] (10 µM) and in assay [1] (20 µM) were 0.8 log, 1.1 log and 2.1 log, respectively. The concentration for half-maximal inhibition (IC50) in assay [1] (Enterovirus A, EVA71, EV-A71-infected RD cells, MOI = 1, 12 h treatment, viral plaque assay) was determined as 2.06 µM; in assay [2] (EVD68, EV-D68, Enterovirus D, drug treatment duration 12 h, RD cells) it was 5.1 µM; in assay [3] (CVA6, CV-A6, Enterovirus A, drug treatment duration 96 h, RD cells), 3.16 µM. Also, in assay [1] (SI = CC50/IC50), the “Selectivity Index (SI)” value turned out to be 14.35. Also, the viral titre result in assay [2] (10 µM, EV-D68-infected RD cells) is listed as “reducing the viral titres of the above-listed enteroviruses significantly”; in assay [3] (10 µM, CV-A6-infected RD cells) it was “reducing the viral titres of the above-listed enteroviruses significantly”.
